Reference: paper PMC8525948 (Drug Delivery, 2021)
Counter-ions that a name gives are not always drawn.

Legend:
[1] = Droplet size, PDI and appearance of nanoemulsions (LBSNENAs) after self-nanoemulsifying; type: physicochemical; conditions: PC90C10P0 loaded with the named substance at its solubility; 25 °C
Procedure: After self-nanoemulsifying LBSNENPs were placed in double-distilled (DD) water, the average particle size and size distribution of the so-obtained LBSNENAs were measured at a scattering angle of 90° with an N5 submicron particle size analyzer (Beckman Coulter, Brea, CA) at 25 °C, and the intensity autocorrelation of the sample was in a range of 5 × 10^4–10^6. The average diameter and polydispersity index (PDI) of three measurements were reported. […] Each data point is the mean of at least three individual trials.

[2] = In vitro release, USP dissolution apparatus 2, simulated gastric fluid pH 1.2; type: physicochemical; conditions: for Dissolution from PC90C10P0 in simulated gastric acid solution: within 0.5 h / plateau at 0.5 h, CPT11 40 mg/g, inhibitors 80 mg/g
Procedure: The temperature of the dissolution medium was maintained at 37 ± 0.5 °C. Aliquots of 5 mL of sample were withdrawn for the assay at predetermined time intervals and replaced with the same volume of fresh medium.

[3] = Solubility (loading amount) in 1 g of optimal LBSNENP PC90C10P0
[4] = background statement, no reference given; cited from earlier work
[5] = In vivo pharmacokinetic study in rabbits: plasma CPT11
Procedure: Plasma samples were stored at −80 °C before the high-performance liquid chromatographic (HPLC) analysis as described below. PK parameters are presented as the mean and standard deviation (SD) from individual rabbits in each group and were estimated through a noncompartmental analysis. The terminal elimination rate constant (Ke) was estimated from the slope of the log-linear phase of declining plasma concentrations of an […] versus time graph. The half-life (T1/2) was calculated using the following equation: T1/2 = ln2/Ke. The area under the concentration-time curve from beginning to the last time point (AUC0→last) was calculated using the trapezoidal method. Summation of AUC0→last and the concentration at the last measured point divided by Ke yielded AUC0→∞. Clearance (CL) was calculated by dividing the dose by AUC0→∞, and the volume of distribution (V) was determined by dividing CL by Ke. The absolute bioavailability (FAB) and relative bioavailability (FRB) were respectively calculated according to Equations (1) and (2), respectively (1) FAB=[AUC]poDIV/[AUC]IVDpo×100 where [AUC]po and [AUC]IV are the area under the plasma concentration curves (AUCs) after oral and intravenous administration. DIV and Dpo are the doses after […] administration, respectively. (2) FRB=[AUC]ADB/[AUC]BDA×100
where AUC for a LBSNENPs formulation [AUC]A and the AUC for the same drug in solution [AUC]B after oral administration were compared. DB and DA are the doses for solution and LBSNENPs formulation, respectively.
After centrifugation at 13,000 rpm for 30 min at 4 °C, 1.2 mL of ethyl acetate was collected, and then subjected to evaporation under N2 gas at 50 °C. The mobile phase (200 μL) was added to reconstitute the dried residual, vortexed for 5 min, and then centrifuged at 10^4 rpm and 25 °C for 3 min. The supernatant (180 µL) was collected, and 50 µL was injected into the HPLC system for analysis.

[6] = New Zealand white, rabbit, in vivo, iv, 4 mg/kg

Row | Molecule | Mean droplet size of nanoemulsion after self-nanoemulsifying [1] [nm] | PDI of nanoemulsion after self-nanoemulsifying [1] | Dissolution from PC90C10P0 in simulated gastric acid solution [2] | Solubility (loading amount) in 1 g of PC90C10P0 [3] [mg/g] | Dissolution from PC90C10P0 in simulated gastric acid solution with 1% Tween 80 ([2]; plateau at 0.5 h, 80 mg/g) | Times more active than CPT11 [4] | FAB of CPT11 ([5]; I.V. (4 mg/kg), reference group) [%] | AUC(0-inf) [5, 6] [ng·h/mL] | AUC(0-t) [5, 6] [ng·h/mL] | Cmax [5, 6] [ng/mL]
1 | CC1(C)[C@@H](O)CC[C@]2(C)[C@H]3C(=O)C=C4[C@@H]5C[C@@](C)(C(=O)O)CC[C@]5(C)CC[C@@]4(C)[C@]3(C)CC[C@@H]12 [GLA, glycyrrhetinic acid] | 143.5 ± 0.04 | 0.559 ± 0.063 | 100% | 80 |  |  |  |  |  | 
2 | silymarin [SM] |  |  |  | 130 |  |  |  |  |  | 
3 | CC1(C)[C@@H](O[C@H]2O[C@H](C(=O)O)[C@@H](O)[C@H](O)[C@H]2O[C@@H]2O[C@H](C(=O)O)[C@@H](O)[C@H](O)[C@H]2O)CC[C@]2(C)[C@H]3C(=O)C=C4[C@@H]5C[C@@](C)(C(=O)O)CC[C@]5(C)CC[C@@]4(C)[C@]3(C)CC[C@@H]12 [GA, glycyrrhizic acid] | 102.1 ± 0.67 | 0.602 ± 0.031 | 100% | 200 |  |  |  |  |  | 
4 | O=c1cc(-c2ccccc2)oc2cc(O)c(O)c(O)c12 [BA, Baicalein] | 171.0 ± 6.52 | 0.863 ± 0.087 | appeared to be over saturated | 80 | not observed |  |  |  |  | 
5 | CCc1c2c(nc3ccc(O)cc13)-c1cc3c(c(=O)n1C2)COC(=O)[C@]3(O)CC [SN-38] |  |  |  |  |  | 100–1000 times |  |  |  | 
6 | CCc1c2c(nc3ccc(OC(=O)N4CCC(N5CCCCC5)CC4)cc13)-c1cc3c(c(=O)n1C2)COC(=O)[C@]3(O)CC [CPT11, Irinotecan hydrochloride] | 157.3 ± 2.08 | 0.665 ± 0.020 | 100% | 40 |  |  | 100 | 287 ± 104 | 287 ± 104 | 341 ± 98.6
